# Experimental data published in PubChem BioAssay (NCI).
#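 A five-concentration, 48-hour dose response in 96-well plates underlies each endpoint, interpolated linearly between surrounding concentrations. GI50 is the concentration that inhibits growth by half. TGI is the concentration that stops growth completely.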
# Key:
# Experiment in all cases: NCI tumour cell line growth inhibition, 48 h
# HCT-15 colon = test system: HCT-15 colon
# HT29 colon = test system: HT29 colon
# RXF 393 renal = test system: RXF 393 renal
# UACC-257 melanoma = test system: UACC-257 melanoma
# 786-0 renal = test system: 786-0 renal
# A549 NSCLC = test system: A549 NSCLC
# UACC-62 melanoma = test system: UACC-62 melanoma
# MDA-MB-435 = test system: MDA-MB-435
# DMS 273 small cell lung = test system: DMS 273 small cell lung
# M19-MEL melanoma = test system: M19-MEL melanoma
SMILES,GI50 (HCT-15 colon) [µM],TGI (HCT-15 colon) [µM],GI50 (HT29 colon) [µM],TGI (HT29 colon) [µM],GI50 (RXF 393 renal) [µM],TGI (RXF 393 renal) [µM],GI50 (UACC-257 melanoma) [µM],TGI (UACC-257 melanoma) [µM],GI50 (786-0 renal) [µM],TGI (786-0 renal) [µM],GI50 (A549 NSCLC) [µM],TGI (A549 NSCLC) [µM],GI50 (UACC-62 melanoma) [µM],TGI (UACC-62 melanoma) [µM],GI50 (MDA-MB-435) [µM],TGI (MDA-MB-435) [µM],TGI (DMS 273 small cell lung) [µM],TGI (M19-MEL melanoma) [µM]
COC(=O)c1cc2c(s1)-c1nccc3c1c(nc1ccccc13)C2=O,> 100,> 100,> 100,> 100,29.8,> 100,32,> 100,> 100,> 100,> 100,> 100,> 100,> 100,17.7,32,,
COc1ccccc1Nc1ncc(-c2ccccc2)o1,> 25,> 25,> 25,> 25,> 25,> 25,> 25,> 25,> 25,> 25,> 25,> 25,> 25,> 25,> 25,> 25,,
C=CCN1CCC23c4c5ccc(O)c4OC2C(=NN=C2CCC4(O)C6Cc7ccc(O)c8c7C4(CCN6CC=C)C2O8)CCC3(O)C1C5 (stereo not given),,> 100,,37.6,,,,53.2,,35.3,,42.8,,44.4,,,37.7,
COC(=O)c1ccc(-c2c(C#N)[n+](=O)c3cc(Cl)c(Cl)cc3n2[O-])cc1,11.1,91.2,19.9,58,12.1,28,21.5,50.1,17.6,35.6,47.4,> 100,15.3,31.7,17.9,37,,
CC12CCC3c4ccc(O)cc4CCC3C1C/C(=N\O)C2O (stereo not given),,> 100,,> 100,,> 100,,> 100,,> 100,,> 100,,> 100,,> 100,,
CN(C)C(=S)Sc1ccc([N+](=O)[O-])cc1[N+](=O)[O-],1.46,4.2,0.325,1.67,3.83,8.3,1.75,4.9,5.3,16,3.21,17.6,1.71,5.97,1.54,5.36,,
CC(C)=CCc1cc2c(cc1O)OC[C@H]1c3cc4c(cc3O[C@@H]21)OCO4,,> 100,,> 100,,48.7,,> 100,,> 100,,> 100,,> 100,,91.9,,
CN(C)CCNC(=O)c1cccc2c(Nc3ccc(S(=O)(=O)N=C(N)N)cc3)c3ccccc3nc12,,> 100,,> 100,,> 100,,,,60,,48.4,,22.8,,,24.2,59.9
O=[P@@]1(c2ccccc2)O[C@H](COCc2ccccc2)[C@@H](OCc2ccccc2)[C@H](OCc2ccccc2)[C@H]1NCc1ccccc1,3.54,> 100,3.21,> 100,3.83,> 100,2.22,6.76,3.03,> 100,3.04,> 100,2.92,13.1,2.92,> 100,,
CCOC(=O)/C=C/c1ccc(C#Cc2ccccc2)cc1,> 100,> 100,> 100,> 100,49.2,> 100,> 100,> 100,> 100,> 100,72.2,> 100,83.5,> 100,> 100,> 100,,
COc1ccc(C(O)(CCC(C)C)C(CN2CCOCC2)c2ccc(Cl)cc2)cc1 (stereo not given),10.3,24.1,4.41,20.1,6.49,21.7,13.4,33,14,28.6,11.6,35,13.4,29.1,14.9,37.3,,
COc1cc(/C=C/C(=O)c2cccc(-n3cc(-c4ccc(Cl)cc4)[nH]c3=O)c2)ccc1O,1.8,7.07,2.97,> 100,2.99,9.13,5.53,18.6,2.54,6.69,4.67,> 37.7,2.5,9.59,2.75,> 47.5,,
O=C(/C=C/C=C/c1ccccc1)c1ccccc1,,28.8,,30.8,,37.3,,34.2,,27.4,,42.7,,33,,34.2,,
CCc1c(Cl)c(C)cc(O)c1Cl,,38.9,,77.6,,> 100,,99.7,,> 100,,> 100,,> 100,,> 100,,
COc1ccc(C2=C(c3ccc(OC)cc3)C(=O)N3CCCC3C2)cc1 (stereo not given),0.733,> 55.7,6.19,> 100,17.7,> 83.2,32.9,> 100,9.92,> 100,9.42,> 100,9.09,> 100,12.3,> 100,,
CN(C)c1ccc(N=Nc2ccccn2)c(O)c1,0.112,> 100,0.415,> 100,0.229,0.929,1.24,9.04,0.246,15.9,0.478,> 100,0.369,,0.556,> 100,,
Cc1cc2cc3c(=O)[nH]c(=O)[nH]c3nc2cc1C,,> 100,,> 100,,> 100,,> 100,,> 100,,> 100,,> 100,,> 100,,
CS(=O)(=O)Nc1cc(-c2ccc3ncnc(Nc4c(Cl)ccc5c4OCO5)c3c2)cnc1Cl,0.204,1.49,0.238,3.93,0.143,0.575,0.208,3.32,0.233,6.46,0.255,1.94,0.0732,0.785,0.251,1.63,,
